Non-standard residues stand in square brackets, D forms with d. No end group written: not given here. *: point of attachment. Acetyl(2-(piperazin-1-yl)) = O=C(CN1CCNCC1)*; PEG20k = methoxypolyethylene glycol 20k; NMeA = CN[C@@H](C)C(=O)O; βAla = NCCC(=O)O
Assays:
human TGR1 = target: T1, human TGR1 (Homo sapiens, UniProt Q9GZQ4); experiment: Receptor binding test: inhibition of 125I-NMU8 binding to TGR1 membrane fraction; conditions: ratio of IC50 values when the affinity of NMU-8 was 1; 125I-NMU8 135 pM, CHO cell membrane fraction
T1 construct: expressed in transfected cells; host or cells: CHO (dhfr-) cells; membrane fraction
Method: CHO cells expressing Human FM3 (dhfr-) and CHO cells expressing human TGR1 (dhfr-) were cultured in 10% dialyzed FBS-containing MEMα (Invitrogen) medium under conditions of 5% carbon dioxide at 37° C. The adherent cells were detached with 10 mL of 0.1 mM EDTA-containing D-PBS (Invitrogen) and centrifuged for 10 minutes at 1,000 rpm at 4° C., thereby collecting the cells. 15 mL of homogenized buffer (10 mM NaHCO3 (pH 7.4), 5 mM EDTA, protease inhibitor=0.5 mM PMSF, 10 μg/mL Pepstatin A, 20 μg/mL Leupeptin, and 4 μg/mL E-64) was added to the obtained cell pellets, the cellular membrane was disrupted using a polytron homogenizer (Kinematica GmbH), centrifugation was conducted for 10 minutes at 1,000 g at 4° C., and the supernatant was collected. This process was further repeated twice, and ultracentrifugation was conducted for 60 minutes at 30,000 rpm at 4° C. Thereafter, 8 mL of homogenized buffer was added to the pellets and suspended homogeneously to prepare a membrane fraction. The protein concentration of the FM3-expressing CHO cellular membrane fraction was 1.2 mg/mL, and the protein concentration of the TGR1-expressing CHO cellular membrane fraction was 1.1 mg/mL.
The affinity of the NMU-8 derivatives and PEG conjugates shown in Table 2 (Table 2-1 and Table 2-2) with respect to each receptor was evaluated based on the inhibition of ^125I-NMU8 labeled ligand binding to the FM3 membrane fraction or to the TGR1 membrane fraction. Specifically, each of the NMU derivatives and PEG conjugates was dissolved in DMSO so as to prepare 2 μL of each dilution series of the NMU derivatives and PEG conjugates. Then, 100 μL of membrane fraction solutions diluted with a reaction buffer (50 mM HEPES, 1 mM EDTA protease inhibitor (0.5 mM PMSF), 10 μg/mL Pepstatin A, 20 μg/mL Leupeptin, and 4 μg/mL E-64, pH 6.8, 0.1% BSA) was added thereto, followed by further addition of 100 μL of the labeled ligand (final concentration: 135 pM) similarly diluted with the reaction buffer. The resulting product was thoroughly mixed, and then a reaction was carried out at 25° C. for 70 minutes. In accordance with the above-described procedure, the binding amount of the labeled ligand remaining in the filter was measured using a top count (PerkinElmer) by a liquid scintillation method, and the IC50 values were calculated using a Graph Pad Prism (FIG. 1 (FM3 receptor binding), FIG. 2 (TGR1 receptor binding), and Table 2).

Human FM3 = target: T2, Human FM3 (Homo sapiens, UniProt Q9HB89); experiment: Receptor binding test: inhibition of 125I-NMU8 binding to FM3 membrane fraction; conditions: ratio of IC50 values when the affinity of NMU-8 was 1; 125I-NMU8 135 pM, CHO cell membrane fraction
T2 construct: expressed in transfected cells; host or cells: CHO (dhfr-) cells; membrane fraction
T2 sequence (Q9HB89 1-426): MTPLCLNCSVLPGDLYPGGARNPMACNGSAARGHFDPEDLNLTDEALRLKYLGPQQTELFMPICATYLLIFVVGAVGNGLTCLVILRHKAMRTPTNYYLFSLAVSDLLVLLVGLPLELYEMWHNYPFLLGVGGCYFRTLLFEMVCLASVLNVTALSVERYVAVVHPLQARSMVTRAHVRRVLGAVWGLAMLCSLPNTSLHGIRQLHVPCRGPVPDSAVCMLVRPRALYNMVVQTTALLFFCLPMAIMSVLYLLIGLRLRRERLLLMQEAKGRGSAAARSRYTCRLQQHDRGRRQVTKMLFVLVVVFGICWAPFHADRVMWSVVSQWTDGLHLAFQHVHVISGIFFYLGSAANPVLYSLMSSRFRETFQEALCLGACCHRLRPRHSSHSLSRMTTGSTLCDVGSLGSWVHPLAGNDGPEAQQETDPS

[1] = Anorectic activity via peripheral administration; type: in vivo

T1 sequence (Q9GZQ4 whole entry): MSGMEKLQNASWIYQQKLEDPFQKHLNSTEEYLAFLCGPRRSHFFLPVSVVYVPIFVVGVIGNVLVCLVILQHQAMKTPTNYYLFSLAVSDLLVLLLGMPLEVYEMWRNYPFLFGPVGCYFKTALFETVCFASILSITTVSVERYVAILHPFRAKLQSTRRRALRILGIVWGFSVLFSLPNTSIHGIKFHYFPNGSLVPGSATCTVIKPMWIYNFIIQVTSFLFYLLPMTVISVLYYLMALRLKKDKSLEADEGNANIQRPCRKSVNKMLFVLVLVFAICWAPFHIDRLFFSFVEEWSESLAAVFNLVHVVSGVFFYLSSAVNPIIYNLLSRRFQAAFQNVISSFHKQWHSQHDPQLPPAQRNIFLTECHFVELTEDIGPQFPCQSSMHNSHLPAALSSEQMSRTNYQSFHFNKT

Substance | TGR1 Receptor Binding IC50 ratio (human TGR1) | FM3 Receptor Binding IC50 ratio (Human FM3) | anorectic activity [1]
PEG30k-NH-β-Ala0,Tyr2-NMU-8 [Compound E] | 1.7 | 8.1 | –
β-Ala0,NMeArg5-NMU-8 [Compound 13] | 1.1 | 0.46 | –
PEG30k-NH-β-Ala0,Arg(Me) 7-NMU-8 [Compound N] | 63 | 290 | –
PEG30k-NH-β-Ala0,Cha3-NMU-8 [Compound F] | 11 | 1.3 | –
β-Ala0,Val3-NMU-8 [Compound 4] | 0.37 | 0.43 | –
PEG30k-NH-β-Ala0,NMeArg5-NMU-8 [Compound M] | 29 | 9.0 | –
NMU-23: Rat NMU consists of 23 amino acid residues, and is named NMU-23 (YKVNEYQGPVAPSGGFFLFRPRN; ends and bridges not checked; UniProt P12760 144-166, looked up) | – | – | induces an anorectic activity
PEG30k-NH-β-Ala0,Gln5-NMU-8 [Compound A] | 9.6 | 160 | –
β-Ala0,Asp8-NMU-8 [Compound 12] | 2.0 | 2.4 | –
NpipAc0,Glu2,NMeAla6-NMU-8 [Compound 21] | 5.5 | 6500 | –
PEG20k-NH-β-Ala0,Glu2,NMeAla6-NMU-8 ({PEG20k-βAla}-YELFR[NMeA]RN-NH2) [Compound R] | – | >7300 | –
NpipAc0,Phe1,Trp2,Ala6-NMU-8 [Compound 11] | 0.19 | 280 | –
PEG20k-NpipAc-Glu2,NMeAla6-NMU8 ({PEG20k-Acetyl(2-(piperazin-1-yl))}-YELFR[NMeA]RN-NH2) [Compound U] | – | >10000 | –
β-Ala0,Trp2,NMeAla6-NMU-8 [Compound 17] | 1.9 | 92 | –
PEG20k-NpipAc-Glu2,Ala6-NMU8 ({PEG20k-Acetyl(2-(piperazin-1-yl))}-YELFRARN-NH2) [Compound S] | – | >10000 | –
NpipAc0,Nal(2)2,NMeAla6-NMU-8 [Compound 22] | 1.7 | 99 | –
β-Ala0,Gln5-NMU-8 [Compound 1] | 3.4 | 15 | –
PEG30k-NH-β-Ala0,Arg1-NMU-8 [Compound G] | 8.5 | 1.5 | –
PEG30k-NH-β-Ala0,Asp8-NMU-8 [Compound L] | 34 | 150 | –
Tyr-Phe-Leu-Phe-Arg-Pro-Arg-Asn-NH2 [NMU-8] | – | – | does not induce an anorectic activity

Substance | TGR1 Receptor Binding IC50 ratio (human TGR1) | FM3 Receptor Binding IC50 ratio (Human FM3) | anorectic activity [1]
PEG20k-NH-β-Ala0,NMeLeu3,NMeArg7-NMU-8 [Compound O] | 170 | 75 | –
β-Ala0,Glu2,NMeAla6-NMU-8 [Compound 18] | 31 | 26000 | –
PEG30k-NH-β-Ala0,Pro1-NMU-8 [Compound H] | 21 | 9.4 | –
β-Ala0,Pro1-NMU-8 [Compound 8] | 3.8 | 0.59 | –
NpipAc0,Glu2,Ala6-NMU-8 [Compound 19] | 25 | 24000 | –
PEG30k-NH-β-Ala0,Val3-NMU-8 [Compound D] | 2.2 | 5.3 | –
PEG30k-NH-β-Ala0,Gln3-NMU-8 [Compound B] | 7.3 | 1.8 | –
β-Ala0,NMeLeu3,NMeArg7-NMU-8 [Compound 15] | 19 | 8.6 | –
PEG20k-NH-β-Ala0,NMeTyr1,NMeLeu3,NMeArg5-NMU-8 [Compound P] | 240 | 83 | –
2-(piperazin-1-yl)acetyl-Arg3-NMU8 [Compound 10] | 0.66 | 0.27 | –
β-Ala0,Gln3-NMU-8 [Compound 2] | 3.9 | 0.31 | –
PEG30k-NH-β-Ala0,Arg3-NMU-8 [Compound C] | 2.6 | 1.7 | –
β-Ala0,Arg3-NMU-8 [Compound 3] | 0.38 | 0.07 | –
PEG20k-NPipAc-Phe1, Trp2,Ala6-NMU-8 ({PEG20k-Acetyl(2-(piperazin-1-yl))}-FWLFRARN-NH2) [Compound K] | – | 11000 | –
PEG20k-NH-β-Ala0,Trp2,NMeAla6-NMU-8 [Compound Q] | 47 | 1600 | –
β-Ala0,Arg1-NMU-8 [Compound 7] | 3.7 | 0.42 | –
β-Ala0,Arg(Me)7-NMU-8 [Compound 14] | 3.6 | 6.3 | –
NpipAc0,Trp2,Ala6-NMU-8 [Compound 20] | 1.9 | 900 | –
β-Ala0,Cha3-NMU-8 [Compound 6] | 9.9 | 0.55 | –
PEG20k-NpipAc-Trp2,Ala6-NMU8 ({PEG20k-Acetyl(2-(piperazin-1-yl))}-YWLFRARN-NH2) [Compound T] | – | >10000 | –

Source: patent US9175037B2, “Neuromedin U derivative” (Takeda Pharmaceutical Company Limited, priority 2009, dated 2015)
